This is an account of results in US20260193272A1, “SELENIUM CONTAINING HETEROCYCLE COMPOUNDS AND USE THEREOF” (HELIOS HUAMING BIOPHARMA CO., LTD., priority 2022, published 2026).

For one assay, the target named is T1, PAD4 enzyme (Homo sapiens, UniProt Q9UM07).
T1 construct: PAD4 enzyme was diluted to 30 nM in Assay Buffer
T1 sequence (Q9UM07 whole entry): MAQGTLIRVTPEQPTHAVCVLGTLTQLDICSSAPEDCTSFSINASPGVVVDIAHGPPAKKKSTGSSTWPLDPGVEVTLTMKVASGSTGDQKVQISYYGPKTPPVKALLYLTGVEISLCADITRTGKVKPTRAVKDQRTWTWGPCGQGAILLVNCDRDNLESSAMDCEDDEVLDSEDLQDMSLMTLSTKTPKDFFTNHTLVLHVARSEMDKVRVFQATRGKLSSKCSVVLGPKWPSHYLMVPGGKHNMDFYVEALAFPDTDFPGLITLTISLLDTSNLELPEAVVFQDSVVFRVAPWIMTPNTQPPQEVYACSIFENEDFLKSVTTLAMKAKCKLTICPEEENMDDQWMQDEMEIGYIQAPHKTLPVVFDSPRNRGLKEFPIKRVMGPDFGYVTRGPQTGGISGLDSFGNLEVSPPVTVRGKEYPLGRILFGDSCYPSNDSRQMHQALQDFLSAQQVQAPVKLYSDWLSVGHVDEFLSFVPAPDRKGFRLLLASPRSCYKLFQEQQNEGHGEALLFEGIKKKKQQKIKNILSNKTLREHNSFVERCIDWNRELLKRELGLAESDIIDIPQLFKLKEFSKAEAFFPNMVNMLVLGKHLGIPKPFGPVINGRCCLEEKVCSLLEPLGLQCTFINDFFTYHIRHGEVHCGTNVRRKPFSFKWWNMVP
Briefly: In-vitro measurement for enzymatic PAD4 citrullination inhibition activity (ammonia release). The note with it: direct comparison of prior art and selenium containing compounds; read-out: IC50 for enzymatic PAD4 citrullination inhibition. It counts as biochemical. The procedure:
Citrullination was detected via ammonia release based on published methodology (Nature Chemical Biology, 2015, 11: 189-191).
PAD4 enzyme was diluted to 30 nM in Assay Buffer (100 mM HEPES, 50 mM NaCl, 2 mM DTT, 0.6 mg/ml BSA, pH 8) and added to wells containing various concentrations of compound or DMSO vehicle (0.8% final) in a high-volume black 96-well plate (Greiner). Following a 60-min preincubation at 27° C., the reaction was initiated by the addition of substrate (3 mM BAEE in 100 mM HEPES, 50 mM NaCl, […] CaCl2, 2 mM DTT, pH 8). The reaction was stopped after 90 min by the addition of stop/detection buffer containing 50 mM EDTA, 2.6 mM o-phthalaldehyde and 2.6 mM DTT. Assays were incubated at 27° C. for 120 min before measuring fluorescence (λex 410/λem 476) on an Envision plate reader (PerkinElmer). After which IC50 values were calculated using GraphPad Prism 8.0.
In the case of `COc1cc(C(=O)N2C[C@H]3CC[C@@H]2[C@@H]3N)cc2nc(-c3cc4sc(C)cc4n3CC3CC3)n(C)c12` [Cpd-27, reference compound], the half-maximal inhibitory concentration (IC50) (in general, the concentration that inhibits the measured activity by half) stood at 272 nM.
Consider `COc1cc(C(=O)N2CCC[C@@H](N)C2)cc2nc(-c3cc4sc(C5CC5)nc4n3CC3CC3)n(C)c12` [Cpd-118, reference compound], for which the half-inhibitory concentration (IC50) is 66.8 nM.
As for `COc1cc(C(=O)N2CCC[C@@H](N)C2)cc2nc(-c3cc4[se]c(C5CC5)nc4n3CC3CC3)n(C)c12` [HH-4], the IC50 came out at 22.4 nM.
For the compound `COc1cc(C(=O)N2C[C@H]3CC[C@@H]2[C@@H]3N)cc2nc(-c3cc4[se]c(C)cc4n3CC3CC3)n(C)c12` [HH-52], the IC50 was determined as 25.1 nM.

Still in this assay, the particulars now being: read-out: IC50 of inhibition enzymatic activity of PAD4 (Colorimetric assays, Nature Chemical Biology, 2015, 11: 189-191).
In the case of `CCc1nc2c(cc(-c3nc4cc(C(=O)N5C[C@H]6CC[C@@H]5[C@@H]6N)cc(OC)c4n3C)n2CC2CC2)[se]1` [HH-1], the 50% inhibitory concentration (IC50) is not above 50 nM.
Same read-out and setting: with `CCc1nc2c(cc(-c3nc4cc(C(=O)N5C[C@H](N)CC[C@@H]5C)cc(OC)c4n3C)n2CC2CC2)[se]1` [HH-2] the figure was not above 50 nM; with `CCc1nc2c(cc(-c3nc4cc(C(=O)N5C[C@H](N)C[C@@H](F)C5)cc(OC)c4n3C)n2CC2CC2)[se]1` [HH-3], not above 50 nM; with `COc1cc(C(=O)N2CCC[C@@H](N)C2)cc2nc(-c3cc4[se]c(C5CC5)nc4n3CC3CC3)n(C)c12` [HH-4], not above 50 nM.
In the case of `COc1cc(C(=O)N2C[C@H](N)C[C@@H](F)C2)cc2nc(-c3cc4[se]c(C5CC5)nc4n3CC3CC3)n(C)c12` [HH-5], the IC50 was not above 50 nM.
Same read-out and setting: the same measure for `COc1cc(C(=O)N2C[C@H](N)CC[C@@H]2C)cc2nc(-c3cc4[se]c(C5CC5)nc4n3CC3CC3)n(C)c12` [HH-6]: not above 50 nM; for `COc1cc(C(=O)N2C[C@H]3CC[C@@H]2[C@@H]3N)cc2nc(-c3cc4[se]c(C5CC5)nc4n3CC3CC3)n(C)c12` [HH-7]: not above 50 nM.
In the case of `COc1cc(C(=O)N2C[C@H](N)CC[C@@H]2C)cc2nc(-c3cc4[se]c(C)nc4n3CC3CC3)n(C)c12` [HH-8], the concentration for half-maximal inhibition (IC50) is not above 50 nM.
On the same count and under the same terms, with `COc1cc(C(=O)N2C[C@H]3CC[C@@H]2[C@@H]3N)cc2nc(-c3cc4[se]c(C)nc4n3CC3CC3)n(C)c12` [HH-9] the figure was not above 50 nM.
The same measure, in the same setting: the same measure for `COc1cc(C(=O)N2C[C@H](N)C[C@@H](F)C2)cc2nc(-c3cc4[se]c(C)nc4n3CC3CC3)n(C)c12` [HH-10]: not above 50 nM; for `COc1cc(C(=O)N2CC[C@@H](O)[C@@H](N)C2)cc2nc(-c3cc4[se]c(C)nc4n3CC3CC3)n(C)c12` [HH-11]: 100 to 500 nM; for `COc1cc(C(=O)N2CCC[C@@H](N)C2)cc2nc(-c3cc4[se]c(C)nc4n3CC3CC3)n(C)c12` [HH-12]: not above 50 nM.
Still for that read-out and setting: the same measure for `COc1cc(C(=O)N2C[C@H](N)CC(F)(F)C2)cc2nc(-c3cc4[se]c(C)nc4n3CC3CC3)n(C)c12` [HH-13]: more than 500 nM; for `COc1cc(C(=O)N2CC[C@@H](F)[C@@H](N)C2)cc2nc(-c3cc4[se]c(C)nc4n3CC3CC3)n(C)c12` [HH-14]: 100 to 500 nM.
For `COc1cc(C(=O)N2C[C@H](N)CC[C@@H]2C)cc2nc(-c3cc4[se]c(C)nc4n3CC3CCC3)n(C)c12` [HH-15], the half-maximal inhibitory concentration (IC50) was not above 50 nM.
Still for that read-out and setting: with `COc1cc(C(=O)N2C[C@H]3CC[C@@H]2[C@@H]3N)cc2nc(-c3cc4[se]c(C)nc4n3CC3CCC3)n(C)c12` [HH-16] the figure was not above 50 nM; with `COc1cc(C(=O)N2CCC[C@@H](N)C2)cc2nc(-c3cc4[se]c(C)nc4n3CC3CCC3)n(C)c12` [HH-17], not above 50 nM; with `COc1cc(C(=O)N2C[C@H](N)C[C@@H](F)C2)cc2nc(-c3cc4[se]c(C)nc4n3CC3CCC3)n(C)c12` [HH-18], not above 50 nM.
Same read-out and setting: with `CCn1c(-c2nc3cc(C(=O)N4C[C@H](N)CC[C@@H]4C)cc(OC)c3n2C)cc2[se]c(C)nc21` [HH-19] the figure was 100 to 500 nM.
Same read-out and setting: the same measure for `CCn1c(-c2nc3cc(C(=O)N4C[C@H]5CC[C@@H]4[C@@H]5N)cc(OC)c3n2C)cc2[se]c(C)nc21` [HH-20]: 100 to 500 nM.
On to `CCn1c(-c2nc3cc(C(=O)N4C[C@H](N)C[C@@H](F)C4)cc(OC)c3n2C)cc2[se]c(C)nc21` [HH-21], for which the IC50 was in the range of 100 to 500 nM.
As to `COc1cc(C(=O)N2C[C@H](N)CC[C@@H]2C)cc2nc(-c3cc4[se]c(C)nc4n3CC(C)(C)C)n(C)c12` [HH-22], the half-maximal inhibitory concentration (IC50) is 100 to 500 nM.
Same read-out and setting: with `COc1cc(C(=O)N2C[C@H](N)CC[C@@H]2C)cc2nc(-c3cc4[se]c(C)nc4n3CC(F)(F)F)n(C)c12` [HH-23] the figure was 100 to 500 nM; with `COc1ccccc1Cn1c(-c2nc3cc(C(=O)N4C[C@H](N)CC[C@@H]4C)cc(OC)c3n2C)cc2[se]c(C)nc21` [HH-26], 100 to 500 nM; with `COc1cccc(Cn2c(-c3nc4cc(C(=O)N5C[C@H](N)CC[C@@H]5C)cc(OC)c4n3C)cc3[se]c(C)nc32)c1` [HH-27], 100 to 500 nM.
Consider `COc1cc(C(=O)N2C[C@H](N)CC[C@@H]2C)cc2nc(-c3cc4[se]c(C)nc4n3Cc3ccc(C(F)(F)F)cc3)n(C)c12` [HH-28], for which the IC50 was more than 500 nM.
The same measure, in the same setting: with `COc1cc(C(=O)N2C[C@H](N)CC[C@@H]2C)cc2nc(-c3cc4[se]c(C)nc4n3Cc3ccncc3)n(C)c12` [HH-29] the figure was 100 to 500 nM.
For the compound `COc1cc(C(=O)N2C[C@H]3CC[C@@H]2[C@@H]3N)cc2nc(-c3cc4[se]c(C)nc4n3Cc3ccncc3)n(C)c12` [HH-30], the IC50 fell in the range of 100 to 500 nM.
Still for that read-out and setting: with `COc1cc(C(=O)N2C[C@H](N)CC[C@@H]2C)cc2nc(-c3cc4[se]c(C)nc4n3Cc3ccccn3)n(C)c12` [HH-31] the figure was 100 to 500 nM.
On the same count and under the same terms, the same measure for `COc1cc(C(=O)N2C[C@H](N)CC[C@@H]2C)cc2nc(-c3cc4[se]c(C)nc4n3Cc3ccoc3)n(C)c12` [HH-32]: 100 to 500 nM; for `COc1cc(C(=O)N2C[C@H](N)CC[C@@H]2C)cc2nc(-c3cc4[se]c(C)nc4n3Cc3ccsc3)n(C)c12` [HH-34]: 50 to 100 nM; for `COc1cc(C(=O)N2C[C@H](N)CC[C@@H]2C)cc2nc(-c3cc4[se]c(C5CCNCC5)nc4n3CC3CC3)n(C)c12` [HH-35]: 50 to 100 nM.
Regarding `COc1cc(C(=O)N2C[C@H](N)C[C@@H](F)C2)cc2nc(-c3cc4[se]c(C5CCNCC5)nc4n3CC3CC3)n(C)c12` [HH-36], the IC50 fell in the range of 100 to 500 nM.
On the same count and under the same terms, with `COc1cc(C(=O)N2C[C@H]3CC[C@@H]2[C@@H]3N)cc2nc(-c3cc4[se]c(C5CCNCC5)nc4n3CC3CC3)n(C)c12` [HH-37] the figure was 100 to 500 nM; with `COc1ccccc1-c1nc2c(cc(-c3nc4cc(C(=O)N5C[C@H](N)CC[C@@H]5C)cc(OC)c4n3C)n2CC2CC2)[se]1` [HH-38], 100 to 500 nM; with `COc1ccccc1-c1nc2c(cc(-c3nc4cc(C(=O)N5C[C@H]6CC[C@@H]5[C@@H]6N)cc(OC)c4n3C)n2CC2CC2)[se]1` [HH-39], more than 500 nM.
The same measure, in the same setting: with `COc1ccc(-c2nc3c(cc(-c4nc5cc(C(=O)N6C[C@H](N)C[C@@H](F)C6)cc(OC)c5n4C)n3CC3CC3)[se]2)cc1` [HH-40] the figure was 100 to 500 nM; with `COc1cc(C(=O)N2C[C@H](N)CC[C@@H]2C)cc2nc(-c3cc4[se]c(-c5ccncc5)nc4n3CC3CC3)n(C)c12` [HH-41], 100 to 500 nM.
As for `COc1cc(C(=O)N2C[C@H](N)C[C@@H](F)C2)cc2nc(-c3cc4[se]c(-c5ccncc5)nc4n3CC3CC3)n(C)c12` [HH-42], the IC50 lay within 100 to 500 nM.
As for `COc1cc(C(=O)N2C[C@H](N)CC[C@@H]2C)cc2nc(-c3cc4[se]c(-c5ccccn5)nc4n3CC3CC3)n(C)c12` [HH-43], the IC50 is 100 to 500 nM.
Regarding `COc1cc(C(=O)N2C[C@H]3CC[C@@H]2[C@@H]3N)cc2nc(-c3cc4[se]c(-c5ccccn5)nc4n3CC3CC3)n(C)c12` [HH-44], the IC50 lay in the range of 100 to 500 nM.
For the compound `COc1cc(C(=O)N2C[C@H](N)CC[C@@H]2C)cc2nc(-c3cc4[se]c(-c5ccc(C)cc5)nc4n3CC3CC3)n(C)c12` [HH-45], the IC50 was more than 500 nM.
Regarding `COc1cc(C(=O)N2C[C@H](N)C[C@@H](F)C2)cc2nc(-c3cc4[se]c(-c5cccc(C)c5)nc4n3CC3CC3)n(C)c12` [HH-46], the IC50 was more than 500 nM.
In the case of `COc1cc(C(=O)N2C[C@H](N)C[C@@H](F)C2)cc2nc(-c3cc4[se]ccc4n3CC3CC3)n(C)c12` [HH-47], the half-inhibitory concentration (IC50) lay within 50 to 100 nM.
On to `COc1cc(C(=O)N2C[C@H](N)CC[C@@H]2C)cc2nc(-c3cc4[se]ccc4n3CC3CC3)n(C)c12` [HH-48], for which the IC50 was 100 to 500 nM.
Still for that read-out and setting: the same measure for `COc1cc(C(=O)N2C[C@H](N)CC[C@@H]2C)cc2nc(-c3cc4[se]c(C)cc4n3CC3CC3)n(C)c12` [HH-49]: not above 50 nM; for `COc1cc(C(=O)N2CCC[C@@H](N)C2)cc2nc(-c3cc4[se]c(C)cc4n3CC3CC3)n(C)c12` [HH-50]: 50 to 100 nM; for `COc1cc(C(=O)N2C[C@H](N)C[C@@H](F)C2)cc2nc(-c3cc4[se]c(C)cc4n3CC3CC3)n(C)c12` [HH-51]: not above 50 nM.
As for `COc1cc(C(=O)N2C[C@H]3CC[C@@H]2[C@@H]3N)cc2nc(-c3cc4[se]c(C)cc4n3CC3CC3)n(C)c12` [HH-52], the IC50 was not above 50 nM.
With `COc1cc(C(=O)N2C[C@H](N)C[C@@H](F)C2)cc2nc(-c3cc4[se]c(C5CCCN5)cc4n3CC3CC3)n(C)c12` (stereo partly drawn) [HH-53], the IC50 was 50 to 100 nM.
Still for that read-out and setting: with `COc1cc(C(=O)N2C[C@H](N)CC[C@@H]2C)cc2nc(-c3cc4[se]c(C5CCCN5)cc4n3CC3CC3)n(C)c12` (stereo partly drawn) [HH-54] the figure was 50 to 100 nM; with `COc1cc(C(=O)N2C[C@H]3CC[C@@H]2[C@@H]3N)cc2nc(-c3cc4[se]c(C5CCCN5)cc4n3CC3CC3)n(C)c12` (stereo partly drawn) [HH-55], 100 to 500 nM.
The same measure, in the same setting: the same measure for `COc1cc(C(=O)N2C[C@H]3CC[C@@H]2[C@@H]3N)cc2nc(-c3cc4[se]c(-c5ccc(C)cc5)cc4n3CC3CC3)n(C)c12` [HH-56]: 100 to 500 nM.
